Results from patent US8735602B2, “Pharmaceutically acceptable salts of thymodepressin and processes for their manufacture” (Apotex Technologies inc., priority 2006, dated 2014).

Tests used:
Type in all cases: physicochemical
[1] = Speciation plot (FIG. 5) calculation of solution pH from experimentally determined pKas; settings: according to the speciation plot calculation
Description: A pharmaceutically acceptable salt of a drug substance is one that is chemically stable and can be used in a pharmaceutical composition. Unlike simple aromatic hydrocarbons, thymodepressin is a dipeptide with multi-functional groups. The dipeptide D-isoglutamyl-D-tryptophan has an alpha amine, two carboxylic acids and an indole nitrogen within the same molecule. An ideal salt should be one that has a solution pH close to about 7 and in the low basic pH range. Through investigations in our laboratory, in the search for a novel salt to address the shortcomings of the disodium salt of D-isoglutamyl-D-tryptophan, the speciation plot (FIG. 5) was used to determine salts with ideal solution pH and solubility that are suitable for pharmaceutical formulations. FIG. 5 is a speciation plot of H-D-iGlu-D-Trp-OH from pH 0 to 12 using experimentally determined pKas. In FIG. 5, LH2=H-D-iGlu-D-Trp-OH, LH=mono carboxylic acid salt, L=dicarboxylic acid salt, and LH3=acid addition salt of H-D-iGlu-D-Trp-OH. The X axis provides the pH of the solution, whereas the Y axis reports the amount of the species present at a particular pH. From our practical experience, we use 6 ml of water per gm of H-D-iGlu-D-Trp-OH for isolation purposes, which corresponds to a concentration of 0.5 M solution.
According to the speciation plot calculation shown in FIG. 5, the diacid form has a pH of about 2.7 to about 3 in solution. The metal salt of formula I wherein M is potassium or lithium; the divalent salt of formula II wherein B is calcium or magnesium has a solution pH close to about 7.
We have applied the speciation plot (FIG. 5) to compute the pH range of the salt forms of the dipeptide H-D-iGlu-D-Trp-OH. […] This is particular ideal for liquid formulation, sublingual tablets, nasal drops and sprays.

[2] = Percent crystallinity by X-ray powder diffraction; settings: XRPD, D8 system with 2D detector; not absolute values
Experimental: The percent crystallinity is commonly measured as a ratio between the diffraction portion from the crystalline part of the sample, Ic, and the total diffraction from the same sample, IC+B. The values of IC can be obtained after an appropriate subtraction of the scattering portion from the background, IB.
For such kind of analyses, the diffraction is measured as total area under the profile of: • the whole pattern as it is collected (one may correct for the air scattering) −ITOTAL* • the peaks only (IC) after subtraction of the background (correction for the air scattering), • the background only with correction for air scattering −(IB).
However, in this study, due to the technical problems with the D5000 point-detector diffraction system, all the samples were analyzed on a D8 system, equipped with an area, 2D detector, and the above-mentioned approach could not be applied. Therefore, another technique has been developed for measuring the crystallinity of samples analyzed on such system. Only a narrow part of the 2D diffraction image is chosen with a single peak at the centre and a neighbour area where the background will be measured.
All samples were measured for calculation of their crystallinity using a narrow range of 21°-25° with a strongest reflection at […]. The background was subtracted as linear, and an empirical correlation coefficient of 2.5 was applied.

[3] = Stability of the solid salt
Description: It is extremely hygroscopic and very difficult to weigh for formulation research. In solution, as per the speciation plot (FIG. 5), the pH is above 9.0 and the solution pH must be adjusted to about 7.0 to about 7.4 in a formulation preparation.

[4] = Hygroscopicity of the freeze-dried solid in air

Compound	pH in solution [1]	percent crystallinity [2]	stability as a solid [3]	hygroscopicity [4]
NC(=O)[C@H](N)CCC(=O)N[C@H](Cc1c[nH]c2ccccc12)C(=O)[O-].[K+] [potassium salt of formula I, D-isoglutamyl-D-tryptophan potassium salt (1:1)]	about 7			
Calcium Salt of D-isoglutamyl-D-tryptophan (1:2) [Example 8]		18-20%		
D-isoglutamyl-D-tryptophan calcium salt (2:1) [calcium salt of formula II]	about 7	≤ 67%		
D-isoglutamyl-D-tryptophan magnesium salt (2:1) [magnesium salt of formula II]	about 7			
disodium salt of D-isoglutamyl-D-tryptophan	above 9.0		less stable chemical entity as a solid	extremely hygroscopic turning into a gel in a matter of minutes in air
